Read-outs that look alike come from different tables or passages of the source.
Tests used:
Test in all cases: Ras-Raf disruption / FRET / MOA assay (BRAF RBD)
Format in all cases: biochemical
KRAS G12C = KRAS G12C (Homo sapiens, UniProt P01116+P62937, G12C); settings: with Cyclophilin A
In short: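 His6-K-Ras G12C-GMPPNP (12.5 nM), GST-BRAF RBD (50 nM) and tagless Cyclophilin A (25 μM) incubated 3 h at 25 °C with compound (10-point 3-fold series from 30 μM), pH 7.3 HEPES buffer. Anti-His Eu/anti-GST APC added for 1.5 h; decreased TR-FRET ratio vs DMSO gives IC50.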

KRAS G13C = KRAS G13C (Homo sapiens, UniProt P01116+P62937, G13C); settings: with Cyclophilin A
Sequence of KRAS G13C (P01116 1-169 isoform P01116-2 G13C limits assumed): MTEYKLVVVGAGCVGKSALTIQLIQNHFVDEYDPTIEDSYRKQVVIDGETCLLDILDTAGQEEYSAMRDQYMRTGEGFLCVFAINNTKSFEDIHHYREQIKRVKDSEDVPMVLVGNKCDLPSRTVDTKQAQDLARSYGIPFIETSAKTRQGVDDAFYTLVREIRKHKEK
Sequence of KRAS G13C (P62937 whole entry): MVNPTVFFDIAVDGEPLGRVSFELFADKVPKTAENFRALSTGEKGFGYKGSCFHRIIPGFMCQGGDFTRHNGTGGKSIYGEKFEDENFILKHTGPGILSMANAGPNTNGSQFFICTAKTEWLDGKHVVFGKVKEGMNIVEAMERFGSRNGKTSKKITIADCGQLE
In short: (§1)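 TR-FRET in 25 mM HEPES pH 7.3, 100 mM NaCl, 5 mM MgCl2, 0.1% BSA, 0.002% Tween20 with 25 μM Cyclophilin A, 12.5 nM His6-Ras-GMPPNP, 50 nM GST-BRAF RBD; compound 10-point 3-fold series from 30 μM. After 3 h at 25 °C, Eu anti-His/APC anti-GST added for 1.5 h; IC50 from ratio decrease versus DMSO.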

KRAS G12D = KRAS G12D (Homo sapiens, UniProt P01116+P62937, G12D); settings: with Cyclophilin A
Sequence of KRAS G12D (P01116 1-169 isoform P01116-2 G12D limits assumed): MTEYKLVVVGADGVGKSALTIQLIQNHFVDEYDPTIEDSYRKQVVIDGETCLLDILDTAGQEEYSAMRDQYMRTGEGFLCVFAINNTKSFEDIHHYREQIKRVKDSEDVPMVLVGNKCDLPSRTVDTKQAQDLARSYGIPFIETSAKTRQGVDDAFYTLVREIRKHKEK
Sequence of KRAS G12D (P62937 whole entry): as the sequence (P62937 whole entry) above
In short: as §1

NRAS Q61K = NRAS Q61K (Homo sapiens, UniProt P01111+P62937, Q61K)
Sequence of NRAS Q61K (P01111 whole entry Q61K): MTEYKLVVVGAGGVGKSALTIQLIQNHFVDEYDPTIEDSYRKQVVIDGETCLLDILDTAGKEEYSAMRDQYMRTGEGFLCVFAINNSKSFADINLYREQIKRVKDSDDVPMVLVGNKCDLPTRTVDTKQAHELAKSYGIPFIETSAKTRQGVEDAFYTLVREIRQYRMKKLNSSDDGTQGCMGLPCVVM
Sequence of NRAS Q61K (P62937 whole entry): as the sequence (P62937 whole entry) above
In short: as §1

NRAS G12C = NRAS G12C (Homo sapiens, UniProt P01111+P62937, G12C)
Sequence of NRAS G12C (P01111 whole entry G12C): as the sequence (P01111 whole entry Q61K) above, with G12C, K61Q counted along it
Sequence of NRAS G12C (P62937 whole entry): as the sequence (P62937 whole entry) above
In short: as §1

KRAS WT = KRAS WT (Homo sapiens, UniProt P01116+P62937); settings: with Cyclophilin A
Sequence of KRAS WT (P01116 1-169 isoform P01116-2 limits assumed): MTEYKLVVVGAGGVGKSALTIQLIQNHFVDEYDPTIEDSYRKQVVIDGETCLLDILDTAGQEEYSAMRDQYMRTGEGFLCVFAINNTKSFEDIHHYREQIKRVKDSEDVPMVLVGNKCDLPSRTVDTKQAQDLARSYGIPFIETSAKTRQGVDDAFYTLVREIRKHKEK
Sequence of KRAS WT (P62937 whole entry): as the sequence (P62937 whole entry) above
In short: as §1

KRAS G13D = KRAS G13D (Homo sapiens, UniProt P01116+P62937, G13D); settings: with Cyclophilin A
Sequence of KRAS G13D (P01116 1-169 isoform P01116-2 G13D limits assumed): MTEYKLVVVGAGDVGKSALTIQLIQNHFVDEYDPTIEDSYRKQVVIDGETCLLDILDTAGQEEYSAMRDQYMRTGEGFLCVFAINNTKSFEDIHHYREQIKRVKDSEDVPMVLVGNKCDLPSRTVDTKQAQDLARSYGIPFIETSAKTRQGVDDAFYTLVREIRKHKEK
Sequence of KRAS G13D (P62937 whole entry): as the sequence (P62937 whole entry) above
In short: as §1

NRAS Q61R = NRAS Q61R (Homo sapiens, UniProt P01111+P62937, Q61R)
Sequence of NRAS Q61R (P01111 whole entry Q61R): as the sequence (P01111 whole entry Q61K) above, with K61R counted along it
Sequence of NRAS Q61R (P62937 whole entry): as the sequence (P62937 whole entry) above
In short: as §1

KRAS G12S = KRAS G12S (Homo sapiens, UniProt P01116+P62937, G12S); settings: with Cyclophilin A
Sequence of KRAS G12S (P01116 1-169 isoform P01116-2 G12S limits assumed): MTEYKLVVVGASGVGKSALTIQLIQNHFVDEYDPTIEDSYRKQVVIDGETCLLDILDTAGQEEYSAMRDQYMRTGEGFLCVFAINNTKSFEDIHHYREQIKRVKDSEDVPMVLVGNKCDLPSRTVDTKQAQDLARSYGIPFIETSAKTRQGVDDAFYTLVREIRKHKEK
Sequence of KRAS G12S (P62937 whole entry): as the sequence (P62937 whole entry) above
In short: as §1

KRAS Q61H = KRAS Q61H (Homo sapiens, UniProt P01116+P62937, Q61H)
Sequence of KRAS Q61H (P01116 1-169 isoform P01116-2 Q61H limits assumed): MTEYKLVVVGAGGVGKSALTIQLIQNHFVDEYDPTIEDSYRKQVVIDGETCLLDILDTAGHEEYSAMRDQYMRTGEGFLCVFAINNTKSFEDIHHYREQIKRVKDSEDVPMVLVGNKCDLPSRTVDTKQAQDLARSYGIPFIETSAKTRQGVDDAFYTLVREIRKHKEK
Sequence of KRAS Q61H (P62937 whole entry): as the sequence (P62937 whole entry) above
In short: as §1

NRAS WT = NRAS WT (Homo sapiens, UniProt P01111+P62937)
Sequence of NRAS WT (P01111 whole entry): as the sequence (P01111 whole entry Q61K) above, with K61Q counted along it
Sequence of NRAS WT (P62937 whole entry): as the sequence (P62937 whole entry) above
In short: as §1

KRAS G12V = KRAS G12V (Homo sapiens, UniProt P01116+P62937, G12V); settings: with Cyclophilin A
Sequence of KRAS G12V (P01116 1-169 isoform P01116-2 G12V limits assumed): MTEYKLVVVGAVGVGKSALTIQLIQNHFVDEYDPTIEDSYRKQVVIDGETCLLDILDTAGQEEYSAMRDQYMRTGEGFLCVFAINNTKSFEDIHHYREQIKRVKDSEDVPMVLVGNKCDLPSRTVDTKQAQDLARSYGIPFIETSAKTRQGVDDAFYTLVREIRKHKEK
Sequence of KRAS G12V (P62937 whole entry): as the sequence (P62937 whole entry) above
In short: as §1

[1] = KRAS G12C FRET data IC50, Ras-Raf disruption
[2] = KRAS G13C FRET data IC50, Ras-Raf disruption
[3] = KRAS G12D FRET data IC50, Ras-Raf disruption
[4] = NRAS G12C FRET data IC50, NRAS G12C
[5] = KRAS WT FRET data IC50, Ras-Raf disruption
[6] = KRAS G13D FRET data IC50, Ras-Raf disruption
[7] = KRAS G12S FRET data IC50, Ras-Raf disruption
[8] = KRAS G12V FRET data IC50, Ras-Raf disruption
[9] = Ras-Raf disruption, read-out: KRAS G12C FRET data IC50
[10] = Ras-Raf disruption, read-out: KRAS G13C FRET data IC50
[11] = Ras-Raf disruption, read-out: KRAS G12D FRET data IC50
[12] = NRAS Q61K, read-out: NRAS Q61K FRET data IC50
[13] = NRAS G12C, read-out: NRAS G12C FRET data IC50
[14] = Ras-Raf disruption, read-out: KRAS WT FRET data IC50
[15] = Ras-Raf disruption, read-out: KRAS G13D FRET data IC50
[16] = NRAS Q61R, read-out: NRAS Q61R FRET data IC50
[17] = Ras-Raf disruption, read-out: KRAS G12S FRET data IC50
[18] = KRAS Q61H, read-out: KRAS Q61H FRET data IC50
[19] = NRAS WT, read-out: NRAS WT FRET data IC50
[20] = Ras-Raf disruption, read-out: KRAS G12V FRET data IC50

Sequence of KRAS G12C (P01116 1-169 isoform P01116-2 G12C limits assumed): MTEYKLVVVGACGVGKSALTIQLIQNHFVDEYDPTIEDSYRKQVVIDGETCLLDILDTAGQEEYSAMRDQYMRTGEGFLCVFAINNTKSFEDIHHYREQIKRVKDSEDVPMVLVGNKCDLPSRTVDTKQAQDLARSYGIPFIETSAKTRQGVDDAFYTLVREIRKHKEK
Sequence of KRAS G12C (P62937 whole entry): as the sequence (P62937 whole entry) above

Compound	IC50 (KRAS G12C; [1])	IC50 (KRAS G13C; [2])	IC50 (KRAS G12D; [3])	IC50 (NRAS Q61K)	IC50 (NRAS G12C; [4])	IC50 (KRAS WT; [5])	IC50 (KRAS G13D; [6])	IC50 (NRAS Q61R)	IC50 (KRAS G12C; [9])	IC50 (KRAS G13C; [10])	IC50 (KRAS G12D; [11])	IC50 (NRAS Q61K; [12])	IC50 (NRAS G12C; [13])	IC50 (KRAS WT; [14])	IC50 (KRAS G13D; [15])	IC50 (NRAS Q61R; [16])	IC50 (KRAS G12S; [17])	IC50 (KRAS Q61H; [18])	IC50 (NRAS WT; [19])	IC50 (KRAS G12V; [20])	further results
CCn1c(-c2cccnc2[C@H](C)OC)c2c3cc(ccc31)-c1cc(O)cc(c1)C[C@H](NC(=O)[C@H](C(C)C)N(C)C(=O)C13CC(CN1C(=O)[C@@H]1CN1)C3)C(=O)N1CCC[C@H](N1)C(=O)OCC(C)(C)C2 [Example 163]	100 to 1000 nM	100 to 1000 nM	100 to 1000 nM	100 to 1000 nM	100 to 1000 nM	100 to 1000 nM	100 to 1000 nM	100 to 1000 nM													IC50 (KRAS G12S; [7]): 100 to 1000 nM; IC50 (KRAS Q61H): 10 to 100 nM; IC50 (NRAS WT): 100 to 1000 nM; IC50 (KRAS G12V; [8]): 100 to 1000 nM
CCn1c(-c2cccnc2[C@H](C)OC)c2c3cc(ccc31)-c1csc(n1)C[C@H](NC(=O)[C@H](C(C)C)N(C)C(=O)N(C)CC1CN(C(=O)[C@H]3CN3)C1)C(=O)N1CCC[C@H](N1)C(=O)OCC(C)(C)C2 (atropisomer, axis not shown) [Example 293]									10 to 100 nM	100 to 1000 nM	100 to 1000 nM	10 to 100 nM	10 to 100 nM	100 to 1000 nM	100 to 1000 nM	100 to 1000 nM	100 to 1000 nM	10 to 100 nM	100 to 1000 nM	100 to 1000 nM	
CCn1c(-c2cccnc2[C@H](C)OC)c2c3cc(ccc31)-c1cc(O)cc(c1)C[C@H](NC(=O)[C@H](C(C)C)N(C)C(=O)N1C[C@@H]3[C@H]1CCN3C(=O)[C@H]1CN1)C(=O)N1CCC[C@H](N1)C(=O)OCC(C)(C)C2 (atropisomer, axis not shown) [Example 250]									10 to 100 nM	100 to 1000 nM	1000 to 10000 nM	1000 to 10000 nM	100 to 1000 nM	100 to 1000 nM	1000 to 10000 nM	1000 to 10000 nM	100 to 1000 nM	100 to 1000 nM	100 to 1000 nM	100 to 1000 nM	
CCn1c(-c2cccnc2[C@H](C)OC)c2c3cc(ccc31)-c1cc(O)cc(c1)C[C@H](NC(=O)[C@H](C1CCCC1)N(C)C(=O)CN(C)C(=O)[C@H]1N[C@H]1C1(C#N)CC1)C(=O)N1CCC[C@H](N1)C(=O)OCC(C)(C)C2 [Example 316]	10 to 100 nM	10 to 100 nM	10 to 100 nM	100 to 1000 nM	10 to 100 nM	10 to 100 nM	10 to 100 nM	100 to 1000 nM													IC50 (KRAS G12S; [7]): 10 to 100 nM; IC50 (KRAS Q61H): 10 to 100 nM; IC50 (NRAS WT): 10 to 100 nM; IC50 (KRAS G12V; [8]): 10 to 100 nM
CCn1c(-c2cccnc2[C@H](C)OC)c2c3cc(ccc31)-c1csc(n1)C[C@H](NC(=O)[C@H](C(C)C)N(C)C(=O)N(C)C1CN(C(=O)[C@H]3CN3)C1)C(=O)N1CCC[C@H](N1)C(=O)OCC(C)(C)C2 [Example 220]									10 to 100 nM	100 to 1000 nM	1000 to 10000 nM	10 to 100 nM	100 to 1000 nM	100 to 1000 nM	100 to 1000 nM	100 to 1000 nM	100 to 1000 nM	10 to 100 nM	100 to 1000 nM	100 to 1000 nM	
CCn1c(-c2cccnc2[C@H](C)OC)c2c3cc(ccc31)-c1cc(O)cc(c1)C[C@H](NC(=O)[C@H](C(C)C)N1CC[C@H](NC(=O)[C@H]3CN3)C1=O)C(=O)N1CCC[C@H](N1)C(=O)OCC(C)(C)C2 [Example 213]	10 to 100 nM	10 to 100 nM	1000 to 10000 nM	100 to 1000 nM	10 to 100 nM	10 to 100 nM	100 to 1000 nM	100 to 1000 nM													IC50 (KRAS G12S; [7]): 100 to 1000 nM; IC50 (KRAS Q61H): 10 to 100 nM; IC50 (NRAS WT): 10 to 100 nM; IC50 (KRAS G12V; [8]): 100 to 1000 nM
CCn1c(-c2cccnc2[C@H](C)OC)c2c3cc(ccc31)-c1csc(n1)C[C@H](NC(=O)[C@H](C(C)C)N(C)C(=O)N1CC[C@H]1CN(C)C(=O)[C@@H]1CN1)C(=O)N1CCC[C@H](N1)C(=O)OCC(C)(C)C2 [Example 235]									100 to 1000 nM	1000 to 10000 nM	1000 to 10000 nM	100 to 1000 nM	100 to 1000 nM	1000 to 10000 nM	1000 to 10000 nM	1000 to 10000 nM	1000 to 10000 nM	100 to 1000 nM	1000 to 10000 nM	1000 to 10000 nM	
CCn1c(-c2cccnc2[C@H](C)OC)c2c3cc(ccc31)-c1cc(O)cc(c1)C[C@H](NC(=O)[C@H](C(C)C)N(C)C(=O)N(C)C1CN(C(=O)[C@H]3CN3)C1)C(=O)N1CCC[C@H](N1)C(=O)OCC(C)(C)C2 (atropisomer, axis not shown) [Example 203]									< 10 nM	10 to 100 nM	100 to 1000 nM	100 to 1000 nM	< 10 nM	100 to 1000 nM	100 to 1000 nM	100 to 1000 nM	100 to 1000 nM	10 to 100 nM	100 to 1000 nM	100 to 1000 nM	
CCN1C[C@@H]1C(=O)N(C)CC(=O)N(C)[C@H](C(=O)N[C@H]1Cc2cc(O)cc(c2)-c2ccc3c(c2)c(c(-c2cccnc2[C@H](C)OC)n3CC)CC(C)(C)COC(=O)[C@@H]2CCCN(N2)C1=O)C1CCCC1 (stereo partly drawn) [Example 309]	< 10 nM	10 to 100 nM	10 to 100 nM	100 to 1000 nM	< 10 nM	10 to 100 nM	10 to 100 nM	100 to 1000 nM													IC50 (KRAS G12S; [7]): 10 to 100 nM; IC50 (KRAS Q61H): 10 to 100 nM; IC50 (NRAS WT): 10 to 100 nM; IC50 (KRAS G12V; [8]): 10 to 100 nM
CCn1c(-c2cccnc2[C@H](C)OC)c2c3cc(ccc31)-c1csc(n1)C[C@H](NC(=O)[C@H](C(C)C)N(C)C(=O)N1CCN(C(=O)[C@@H]3CN3)C[C@H]1C)C(=O)N1CCC[C@H](N1)C(=O)OCC(C)(C)C2 [Example 302]									10 to 100 nM	100 to 1000 nM	100 to 1000 nM	10 to 100 nM	10 to 100 nM	10 to 100 nM	100 to 1000 nM	10 to 100 nM	10 to 100 nM	10 to 100 nM	10 to 100 nM	10 to 100 nM	

Source: patent US20230233569A1 (Revolution Medicines, Inc., priority 2020, published 2023)
